Results taken from paper PMC4979471 (Cell Death Discovery, 2015).
Like-named read-outs stand apart in the source and are kept apart here.

Assays:
Test in all cases: Kinase selectivity, P33-radiolabeled assay
Format in all cases: biochemical
Settings in all cases: 10 μM ATP
TBK1 = target: T1, TBK1 (Homo sapiens, UniProt Q9UHD2)
T1 construct: purchased Reaction Biology Corp
T1 sequence (Q9UHD2 1-729): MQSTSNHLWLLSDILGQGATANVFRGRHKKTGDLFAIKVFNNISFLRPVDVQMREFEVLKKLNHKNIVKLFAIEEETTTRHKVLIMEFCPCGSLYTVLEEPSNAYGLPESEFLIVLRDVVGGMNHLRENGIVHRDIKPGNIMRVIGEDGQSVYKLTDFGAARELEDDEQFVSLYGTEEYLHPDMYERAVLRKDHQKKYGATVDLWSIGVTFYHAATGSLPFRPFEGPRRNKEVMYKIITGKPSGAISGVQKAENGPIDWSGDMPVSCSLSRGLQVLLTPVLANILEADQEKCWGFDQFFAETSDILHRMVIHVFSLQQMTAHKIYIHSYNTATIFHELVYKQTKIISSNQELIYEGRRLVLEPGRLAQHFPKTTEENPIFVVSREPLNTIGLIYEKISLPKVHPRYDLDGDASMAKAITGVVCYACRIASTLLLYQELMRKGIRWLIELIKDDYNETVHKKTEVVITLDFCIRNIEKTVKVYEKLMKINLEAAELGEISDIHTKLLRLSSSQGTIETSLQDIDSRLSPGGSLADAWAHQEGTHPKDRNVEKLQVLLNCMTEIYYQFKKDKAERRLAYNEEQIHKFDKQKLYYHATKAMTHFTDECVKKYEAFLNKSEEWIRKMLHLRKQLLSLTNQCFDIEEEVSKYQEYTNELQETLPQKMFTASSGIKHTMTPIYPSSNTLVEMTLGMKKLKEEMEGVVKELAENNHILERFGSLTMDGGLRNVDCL
In short: (§1)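 Values show % enzyme activity normalised to DMSO vehicle. They come from one 10 μM compound concentration run twice, at an ATP level of 10 μM.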

JNK2 = target: T2, JNK2 (Homo sapiens, UniProt P45984)
T2 construct: purchased Reaction Biology Corp
In short: as §1

ULK2 = target: T3, ULK2 (Homo sapiens, UniProt Q8IYT8)
T3 construct: purchased Reaction Biology Corp
T3 sequence (Q8IYT8 1-1036): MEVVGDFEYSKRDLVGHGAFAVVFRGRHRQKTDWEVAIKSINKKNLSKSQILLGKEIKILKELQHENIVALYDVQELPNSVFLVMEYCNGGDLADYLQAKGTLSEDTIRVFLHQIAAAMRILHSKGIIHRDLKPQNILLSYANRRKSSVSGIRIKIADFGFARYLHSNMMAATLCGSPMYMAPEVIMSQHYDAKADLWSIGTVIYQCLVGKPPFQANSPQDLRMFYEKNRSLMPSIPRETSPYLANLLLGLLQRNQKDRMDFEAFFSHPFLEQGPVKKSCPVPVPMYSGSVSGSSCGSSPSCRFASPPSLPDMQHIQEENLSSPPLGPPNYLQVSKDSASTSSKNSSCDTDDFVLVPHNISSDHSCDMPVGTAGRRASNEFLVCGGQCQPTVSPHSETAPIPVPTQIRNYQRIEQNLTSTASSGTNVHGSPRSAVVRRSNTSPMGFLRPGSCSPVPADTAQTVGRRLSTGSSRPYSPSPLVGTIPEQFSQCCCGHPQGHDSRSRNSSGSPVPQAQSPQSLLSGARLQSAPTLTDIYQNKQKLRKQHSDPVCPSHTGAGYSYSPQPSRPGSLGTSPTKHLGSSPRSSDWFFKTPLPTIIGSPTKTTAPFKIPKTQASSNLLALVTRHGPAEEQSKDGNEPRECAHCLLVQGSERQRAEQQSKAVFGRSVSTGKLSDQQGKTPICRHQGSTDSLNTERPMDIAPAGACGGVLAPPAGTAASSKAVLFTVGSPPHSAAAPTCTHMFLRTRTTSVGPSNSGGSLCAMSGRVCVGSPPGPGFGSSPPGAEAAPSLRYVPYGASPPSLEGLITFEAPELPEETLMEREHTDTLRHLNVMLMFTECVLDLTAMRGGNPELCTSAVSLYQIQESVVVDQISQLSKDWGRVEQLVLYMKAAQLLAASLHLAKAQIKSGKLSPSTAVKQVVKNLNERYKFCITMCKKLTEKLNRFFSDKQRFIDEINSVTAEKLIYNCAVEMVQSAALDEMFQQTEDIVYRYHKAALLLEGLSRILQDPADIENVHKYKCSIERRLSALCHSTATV
In short: as §1

NIK/MAP3K14 = target: T4, NIK/MAP3K14 (Homo sapiens, UniProt Q99558)
T4 construct: purchased Reaction Biology Corp
In short: as §1

EPHA2 = target: T5, EPHA2 (Homo sapiens, UniProt P29317)
T5 construct: purchased Reaction Biology Corp
In short: as §1

PKG1a = target: T6, PKG1a (Homo sapiens, UniProt Q13976)
T6 construct: purchased Reaction Biology Corp
T6 sequence (Q13976 1-671): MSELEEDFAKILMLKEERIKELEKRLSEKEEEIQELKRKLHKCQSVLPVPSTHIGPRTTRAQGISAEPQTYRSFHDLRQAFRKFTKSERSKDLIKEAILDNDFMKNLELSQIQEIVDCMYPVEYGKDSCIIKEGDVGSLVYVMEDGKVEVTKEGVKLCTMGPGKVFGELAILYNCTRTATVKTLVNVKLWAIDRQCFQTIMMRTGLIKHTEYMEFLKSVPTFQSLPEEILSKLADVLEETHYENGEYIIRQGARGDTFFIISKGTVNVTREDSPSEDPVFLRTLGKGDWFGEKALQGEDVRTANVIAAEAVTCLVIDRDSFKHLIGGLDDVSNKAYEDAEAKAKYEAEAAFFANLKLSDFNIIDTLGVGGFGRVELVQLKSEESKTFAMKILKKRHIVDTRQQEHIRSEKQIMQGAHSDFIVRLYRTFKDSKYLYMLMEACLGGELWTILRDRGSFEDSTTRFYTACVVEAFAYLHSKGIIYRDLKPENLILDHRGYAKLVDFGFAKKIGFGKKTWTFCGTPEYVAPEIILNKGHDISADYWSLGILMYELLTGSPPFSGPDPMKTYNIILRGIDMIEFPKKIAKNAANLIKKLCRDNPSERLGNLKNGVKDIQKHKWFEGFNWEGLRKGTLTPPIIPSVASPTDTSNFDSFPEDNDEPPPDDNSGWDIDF
In short: as §1

ZAK/MLTK = target: T7, ZAK/MLTK (Homo sapiens, UniProt Q9NYL2)
T7 construct: purchased Reaction Biology Corp
In short: as §1

[1] = read-out: % Enzyme Activity (relative to DMSO controls) AVG
[2] = read-out: % Enzyme Activity (relative to DMSO controls) Data 1
[3] = read-out: % Enzyme Activity (relative to DMSO controls) Data 2

T2 sequence (P45984 whole entry): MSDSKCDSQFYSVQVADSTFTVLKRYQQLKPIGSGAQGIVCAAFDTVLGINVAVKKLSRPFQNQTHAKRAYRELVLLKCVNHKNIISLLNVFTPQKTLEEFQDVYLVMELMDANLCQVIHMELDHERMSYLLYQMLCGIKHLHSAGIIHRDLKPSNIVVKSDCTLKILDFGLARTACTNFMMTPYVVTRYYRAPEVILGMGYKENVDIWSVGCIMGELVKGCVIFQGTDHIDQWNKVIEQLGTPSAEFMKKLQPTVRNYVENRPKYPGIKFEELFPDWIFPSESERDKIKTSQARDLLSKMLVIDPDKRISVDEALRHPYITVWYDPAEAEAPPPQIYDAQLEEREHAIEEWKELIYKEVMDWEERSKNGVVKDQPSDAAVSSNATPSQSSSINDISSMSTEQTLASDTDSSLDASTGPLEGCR
T7 sequence (Q9NYL2 whole entry): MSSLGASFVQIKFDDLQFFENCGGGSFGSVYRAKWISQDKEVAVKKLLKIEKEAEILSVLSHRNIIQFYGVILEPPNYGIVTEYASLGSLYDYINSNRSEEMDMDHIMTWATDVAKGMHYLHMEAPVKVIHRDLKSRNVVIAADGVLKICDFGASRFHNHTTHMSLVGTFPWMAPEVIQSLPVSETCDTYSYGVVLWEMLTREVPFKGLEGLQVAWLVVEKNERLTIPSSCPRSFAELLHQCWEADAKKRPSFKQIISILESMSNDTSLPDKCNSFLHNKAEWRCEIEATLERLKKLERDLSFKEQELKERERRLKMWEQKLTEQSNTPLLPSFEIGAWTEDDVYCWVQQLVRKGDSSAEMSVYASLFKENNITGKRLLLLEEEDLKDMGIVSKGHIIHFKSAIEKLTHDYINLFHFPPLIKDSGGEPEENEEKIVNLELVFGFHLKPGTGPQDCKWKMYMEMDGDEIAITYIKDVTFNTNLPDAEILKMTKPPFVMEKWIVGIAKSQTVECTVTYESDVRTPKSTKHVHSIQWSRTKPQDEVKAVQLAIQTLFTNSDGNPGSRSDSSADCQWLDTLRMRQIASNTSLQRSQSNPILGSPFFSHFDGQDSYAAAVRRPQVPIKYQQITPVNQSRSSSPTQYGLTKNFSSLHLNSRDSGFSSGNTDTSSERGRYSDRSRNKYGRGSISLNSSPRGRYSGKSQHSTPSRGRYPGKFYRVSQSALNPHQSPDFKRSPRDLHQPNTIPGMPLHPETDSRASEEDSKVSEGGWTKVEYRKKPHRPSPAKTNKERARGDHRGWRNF
T4 sequence (Q99558 whole entry): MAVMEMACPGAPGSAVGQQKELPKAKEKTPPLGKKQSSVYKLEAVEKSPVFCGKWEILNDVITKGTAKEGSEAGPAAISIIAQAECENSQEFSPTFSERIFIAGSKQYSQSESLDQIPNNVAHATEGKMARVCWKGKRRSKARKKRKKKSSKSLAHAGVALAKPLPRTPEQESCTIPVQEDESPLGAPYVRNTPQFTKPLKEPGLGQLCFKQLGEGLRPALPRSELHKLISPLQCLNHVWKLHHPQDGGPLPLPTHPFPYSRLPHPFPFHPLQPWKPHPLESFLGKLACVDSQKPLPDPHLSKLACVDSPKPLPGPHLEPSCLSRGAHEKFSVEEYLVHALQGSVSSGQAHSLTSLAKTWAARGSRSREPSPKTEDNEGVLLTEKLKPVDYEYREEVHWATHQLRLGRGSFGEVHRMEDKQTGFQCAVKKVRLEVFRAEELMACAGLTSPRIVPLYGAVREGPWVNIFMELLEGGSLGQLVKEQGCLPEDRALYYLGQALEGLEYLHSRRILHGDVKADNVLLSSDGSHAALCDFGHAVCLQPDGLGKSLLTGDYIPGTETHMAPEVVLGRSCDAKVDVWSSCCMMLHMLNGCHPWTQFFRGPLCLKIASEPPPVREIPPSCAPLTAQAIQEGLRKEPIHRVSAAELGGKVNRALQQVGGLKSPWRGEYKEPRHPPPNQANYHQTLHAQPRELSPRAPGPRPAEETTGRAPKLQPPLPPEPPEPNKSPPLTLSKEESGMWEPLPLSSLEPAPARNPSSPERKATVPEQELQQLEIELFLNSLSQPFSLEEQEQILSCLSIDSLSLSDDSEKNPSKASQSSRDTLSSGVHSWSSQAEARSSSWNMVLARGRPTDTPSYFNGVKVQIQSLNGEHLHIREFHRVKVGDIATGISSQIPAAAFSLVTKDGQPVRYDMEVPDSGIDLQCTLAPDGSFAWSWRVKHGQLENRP
T5 sequence (P29317 24-976): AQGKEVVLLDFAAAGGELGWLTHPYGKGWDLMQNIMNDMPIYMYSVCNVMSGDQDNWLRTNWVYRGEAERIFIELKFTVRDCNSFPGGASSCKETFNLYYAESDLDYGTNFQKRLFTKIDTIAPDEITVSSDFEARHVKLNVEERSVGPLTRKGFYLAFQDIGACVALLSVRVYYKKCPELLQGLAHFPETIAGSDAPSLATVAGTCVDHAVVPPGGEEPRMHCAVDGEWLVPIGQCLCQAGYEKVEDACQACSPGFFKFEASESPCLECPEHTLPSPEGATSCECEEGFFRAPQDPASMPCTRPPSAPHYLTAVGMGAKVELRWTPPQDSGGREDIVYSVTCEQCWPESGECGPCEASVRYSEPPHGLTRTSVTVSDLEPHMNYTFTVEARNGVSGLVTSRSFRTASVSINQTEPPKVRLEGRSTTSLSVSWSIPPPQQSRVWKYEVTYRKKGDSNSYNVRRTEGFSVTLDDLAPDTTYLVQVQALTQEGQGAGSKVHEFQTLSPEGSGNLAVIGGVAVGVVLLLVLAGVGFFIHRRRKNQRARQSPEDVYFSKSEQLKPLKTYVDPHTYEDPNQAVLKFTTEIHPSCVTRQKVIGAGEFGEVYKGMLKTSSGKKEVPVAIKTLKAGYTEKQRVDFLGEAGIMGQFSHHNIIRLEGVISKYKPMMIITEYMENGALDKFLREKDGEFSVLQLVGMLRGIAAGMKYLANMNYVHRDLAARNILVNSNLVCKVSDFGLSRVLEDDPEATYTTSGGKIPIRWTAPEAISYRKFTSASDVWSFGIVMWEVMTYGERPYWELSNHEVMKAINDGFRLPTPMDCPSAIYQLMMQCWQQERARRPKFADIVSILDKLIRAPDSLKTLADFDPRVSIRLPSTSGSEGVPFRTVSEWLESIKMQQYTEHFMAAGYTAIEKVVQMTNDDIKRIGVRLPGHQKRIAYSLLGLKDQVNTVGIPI

Structure (SMILES): CC(C)(C)C(=O)N1N=CC[C@H]1c1ccccc1 [GSK′963]
- remaining activity at 10 µM (TBK1; [1]): 86%
- remaining activity at 10 µM (TBK1; [2]): 86.8%
- remaining activity at 10 µM (TBK1; [3]): 85.3%
- remaining activity at 10 µM (JNK2; [1]): 100%
- remaining activity at 10 µM (JNK2; [2]): 96.4%
- remaining activity at 10 µM (JNK2; [3]): 104%
- remaining activity at 10 µM (ULK2; [1]): 99.7%
- remaining activity at 10 µM (ULK2; [2]): 99.8%
- remaining activity at 10 µM (ULK2; [3]): 99.5%
- remaining activity at 10 µM (NIK/MAP3K14; [1]): 98.2%
- remaining activity at 10 µM (NIK/MAP3K14; [2]): 93.4%
- remaining activity at 10 µM (NIK/MAP3K14; [3]): 103%
- remaining activity at 10 µM (EPHA2; [1]): 96.3%
- remaining activity at 10 µM (EPHA2; [2]): 95.6%
- remaining activity at 10 µM (EPHA2; [3]): 97%
- remaining activity at 10 µM (PKG1a; [1]): 90%
- remaining activity at 10 µM (PKG1a; [2]): 92.4%
- remaining activity at 10 µM (PKG1a; [3]): 87.7%
- remaining activity at 10 µM (ZAK/MLTK; [1]): 105%
- remaining activity at 10 µM (ZAK/MLTK; [2]): 106%
- remaining activity at 10 µM (ZAK/MLTK; [3]): 104%
